From patent publication US20180354909A1, “SUBSTITUTED BENZIMIDAZOLIUM, PYRIDO-IMIDAZOLIUM, OR PYRAZINO-IMIDAZOLIUM COMPOUNDS AS CHEMOTHERAPEUTICS” (The Board of Regents of the University of Texas System, priority 2015, published 2018) come the findings set out here.

Data set [1] can be described thus: In vitro plasma half-life. The class given is in vitro ADME. To be noted: murine plasma; for half-life at 2 μM: mouse, plasma, read-out: Plasma T1/2 (converted). The procedure: (§1) 12M11 (2 μM final concentration) was incubated with murine plasma and saline for 0-1440 minutes. Reactions were quenched with 200 μl (1:2) of methanol containing 0.1% formic acid and 200 ng/ml IS (IS final conc.=100 ng/mL). Samples were vortexed for 15 seconds, incubated at RT for 10 minutes and spun for 5 minutes at 13.2K rpm. Supernatant ([…]) was then transferred to an eppendorf tube and spun in a table top, chilled centrifuge for 5 minutes at 13.2K rpm. Supernatant (800 μL) was transferred to an HPLC vial (w/out insert). Analyzed by Qtrap 3200 mass spectrometer. These methods were used data obtained in the FIGS. 22C and 22F.

Data set [2] is described as follows: Buffer (saline) stability. Type of data set: physicochemical. The procedure: as §1
A further data set concerns Mut6. As to the kind of experiment: Cytotox testing (CellTiter-Glo ATP assay) in Mut6 cells. To be noted: CellTiter-Glo; for EC50: Mus musculus, 96 h, Mut6 cells, 4 days, read-out: Activity in Mut6 [EC50]. The class given is cell-based, mouse. As for the experimental part: (§2) Mut6 tumor cells were cultured in DMEM/F12 media supplemented by EGF (10 ng/mL), basic FGF (10 ng/mL), heparin (4 ug/mL), glucose (total 21 mM), NaHCO3 (113 μg/mL), Hepes (119 μg/mL), glutamine (2 mM), sodium pyruvate (1 mM), N2 supplement (ThermoFisher Gibco 17502-048, 100×, at 100-fold dilution), B27 supplement (ThermoFisher Gibco 12587-010, 50×, at 100-fold dilution), and penicillin/streptomycin (ThermoFisher, final 1%). Cells were maintained in Ultra-low attachment plate (Corning) as sphere-forming cells. For ATP assays and protein/RNA isolation, cells were plated into 96-well plates or 6-well plated that were coated with poly-lysine (Sigma P6407, 10 μg/mL in PBS, 4 hr at 37° C.) and laminin (ThermoFisher 23017015, ˜5 mg/L in PBS, overnight at 37° C.). MEFs and Astrocytes were cultured in DMEM supplemented with 10% FBS and 1% Penicillin/Streptomycin.
2,000 cells were plated into each well of 96-well plates. About 3 hours later, cells were treated by 12M11, at 800-fold dilution (4 mM stock was diluted into 5 μM final concentration). […] CellTiter-Glo assay (Promega) was performed according to manufacturer's instructions, by adding 20 μL of reagent into each well. Luminescence signal was detected by the PolarStar plate reader (BMG Labtech). Experiments were performed in quadruplicate, and results are presented with mean average −/+ standard deviation. EC505 were calculated by GraphPad Prism6 software.
The compounds described herein were tested using a cell-based cytotoxicity assay against neuronal stem cells in Mut6, which is a mouse glioblastoma model cell line.

Another data set is described as follows: Murine S9 half-life. The class given is in vitro ADME. To be noted: mouse, S9 fraction; murine S9, Phase I cofactors; read-out: S9 T1/2. As for the experimental part:
22D. […] (2 mM in DMSO) was incubated with Murine S9 (Lot KWB) fraction and Phase I (NADPH Regenerating System) cofactors for 0-240 minutes. Reactions were quenched with 1 mL (1:1) of methanol containing 0.2% formic acid and 100 ng/ml IS (IS final conc.=50 ng/mL). Samples were vortexed for 15 seconds, incubated at RT for 10 minutes and spun for 5 minutes at 2400 rpm. Supernatant (1 mL) was then transferred to an eppendorf tube and spun in a table top, chilled centrifuge for 5 minutes at 13.2K rpm. Supernatant (800 uL) was transferred to an HPLC vial (w/out insert). Analyzed by Qtrap 3200 mass spectrometer. These methods were used data obtained in the FIGS. 22A and 22D.

The next data set concerns astrocytes. The experiment in a line: Cytotox testing (CellTiter-Glo) in astrocytes. The class given is cell-based. As for the experimental part: as §2
2,000 cells were plated into each well of 96-well plates. About 3 hours later, cells were treated by 12M11, at 800-fold dilution (4 mM stock was diluted into 5 μM final concentration). Cells were further incubated for 4 days. CellTiter-Glo assay (Promega) was performed according to manufacturer's instructions, by adding 20 μL of reagent into each well. Luminescence signal was detected by the PolarStar plate reader (BMG Labtech). Experiments were performed in quadruplicate, and results are presented with mean average −/+ standard deviation. EC505 were calculated by GraphPad Prism6 software.

The term EC50 denotes the concentration that produces a half-maximal response. On to `CCc1n(CC(=O)O[C@@H]2C[C@H](C)CC[C@H]2C(C)C)c2ccccc2[n+]1C.[Cl-]`, for which the “Plasma T1/2” value in data set [1] is on record as below 4 min. Further, in data set [2], the “Buffer Stability” value came out at 100%. Besides, the EC50 with Mut6 lay in the range of 100 to 1000 nM.
As for `CCc1n(CC(=O)OC)c2ccccc2[n+]1C`, the EC50 in the data set with Mut6 is above 5000 nM.
The same measure, in the same setting: then `CCc1n(CC(=O)Oc2ccccc2)c2ccccc2[n+]1C`, with above 5000 nM; and `CCc1n(CC(=O)OCc2ccccc2)c2ccccc2[n+]1C`, with above 5000 nM.
The same measure, in the same setting: the value for `CCc1n(CC(=O)O[C@H]2CC[C@@H](C)CC2)c2ccccc2[n+]1C` was above 5000 nM.
Take `CCc1n(CC(=O)O[C@H]2CC[C@H](C)CC2)c2ccccc2[n+]1C`: in the data set on Mut6, the concentration giving a half-maximal response (EC50) is above 5000 nM.
On to `CCc1n(CC(=O)OCCOC)c2ccccc2[n+]1C`, for which the concentration for a half-maximal effect (EC50) in the data set with Mut6 is above 5000 nM.
On to `C#CCCOC(=O)Cn1c(CC)[n+](C)c2ccccc21`, for which the concentration giving a half-maximal response (EC50) in the data set on Mut6 was above 5000 nM.
On the same count and under the same terms, the value for `COC(=O)Cn1c(C)nc2ccccc21` was above 5000 nM; that for `COC(=O)Cn1c(-c2ccccc2)nc2ccccc21` was above 5000 nM; that for `COC(=O)Cn1c(-c2ccc(N(C)C)cc2)nc2ccccc21` was above 5000 nM.
The same measure, in the same setting: then `COC(=O)Cn1c(-c2ccc(C)cc2)nc2ccccc21`, with above 5000 nM.
As to `COC(=O)Cn1c(-c2ccc(SC)cc2)nc2ccccc21`, the EC50 in the data set on Mut6 is above 5000 nM.
On the same count and under the same terms, then `COC(=O)Cn1c(-c2ccc(F)cc2)nc2ccccc21`, with above 5000 nM.
Same read-out and setting: then `COC(=O)Cn1c(-c2cccc(F)c2)nc2ccccc21`, with above 5000 nM; and `COC(=O)Cn1c(-c2cccc(C#N)c2)nc2ccccc21`, with above 5000 nM.
`COC(=O)Cn1c(-c2ccco2)nc2ccccc21`: the concentration for a half-maximal effect (EC50) in the data set on Mut6 was above 5000 nM.
Take `COC(=O)Cn1c(-c2ccccn2)nc2ccccc21`: the EC50 in the data set on Mut6 is above 5000 nM.
Consider `COC(=O)Cn1c(/C=C/c2ccccc2)nc2ccccc21`, for which the EC50 with Mut6 was above 5000 nM.
The same measure, in the same setting: the value for `C/C=C/c1n(CC(=O)OC2C[C@H](C)CC[C@H]2C(C)C)c2ccccc2[n+]1C` (stereo partly shown) was 1000 to 5000 nM; that for `CC(C)[C@@H]1CC[C@@H](C)CC1OC(=O)Cn1c(-c2ccccc2)nc2ccccc21` (stereo partly shown) was above 5000 nM.
For `CC(C)[C@@H]1CC[C@@H](C)CC1OC(=O)Cn1c(-c2ccccc2)[n+](C)c2ccccc21.[I-]` (stereo partly shown), in data set [1], the half-life at 2 μM is 10.6 min. In data set [2], the “Buffer Stability” value is recorded as 97%. In the data set with Mut6, the EC50 was 100 to 1000 nM.
As for `CC(C)[C@@H]1CC[C@@H](C)CC1OC(=O)Cn1c(-c2ccc(O)cc2)nc2ccccc21` (stereo partly shown), the half-maximal effective concentration (EC50) with Mut6 is above 5000 nM.
`CC(C)[C@@H]1CC[C@@H](C)CC1OC(=O)Cn1c(-c2cccc(Br)c2)nc2ccccc21` (stereo partly shown): in the data set with Mut6, the EC50 is above 5000 nM.
Consider `CC(C)[C@@H]1CC[C@@H](C)CC1OC(=O)Cn1c(-c2ccc(N=[N+]=[N-])cc2)nc2ccccc21` (stereo partly shown), for which the concentration giving a half-maximal response (EC50) with Mut6 was above 5000 nM.
Regarding `CC(C)[C@@H]1CC[C@@H](C)CC1OC(=O)Cn1c(-c2ccc(O)cc2)[n+](C)c2ccccc21.[I-]` (stereo partly shown), the half-life at 2 μM in data set [1] is 9.8 min. In addition, in “Murine S9 half-life”, the half-life worked out at 133 min. In addition, the “Buffer Stability” value in data set [2] stood at 114%. In the data set on Mut6, the EC50 lay in the range of 1000 to 5000 nM.
Turning to `CC(C)[C@@H]1CC[C@@H](C)CC1OC(=O)Cn1c(-c2cccc(Br)c2)[n+](C)c2ccccc21.[I-]` (stereo partly shown), the half-life at 2 μM in data set [1] was 29 min. In addition, the “Buffer Stability” value in data set [2] worked out at 94%. The EC50 in the data set with Mut6 was 100 to 1000 nM.
Turning to `CC(C)[C@@H]1CC[C@@H](C)CC1OC(=O)Cn1c(-c2ccc(N=[N+]=[N-])cc2)[n+](C)c2ccccc21.[I-]` (stereo partly shown), the half-life at 2 μM in data set [1] is 26 min. The half-life in “Murine S9 half-life” was found to be 26 min. The “Buffer Stability” value in data set [2] is reported as 96%. Moreover, the EC50 with Mut6 fell in the range of 100 to 1000 nM.
With `CC(C)[C@@H]1CC[C@@H](C)CC1OC(=O)Cn1c(-c2ccccc2[N+](=O)[O-])[n+](C)c2ccccc21.[I-]` (stereo partly shown), the half-life at 2 μM in data set [1] is 47 min. Besides, the half-life in the data set “Murine S9 half-life” is above 240 min. For the same compound, the “Buffer Stability” value in data set [2] is 100%. In addition, the EC50 in the data set on Mut6 fell in the range of 100 to 1000 nM.
Taken in the same sequence, the figures for `CC(C)[C@@H]1CC[C@@H](C)CC1OC(=O)Cn1c(-c2cccc([N+](=O)[O-])c2)[n+](C)c2ccccc21.[I-]` (stereo partly shown) were 330 min, above 240 min, 133% and 1000 to 5000 nM.
Taken in the same sequence, the figures for `CC(C)[C@@H]1CC[C@@H](C)CC1OC(=O)Cn1c(-c2ccc([N+](=O)[O-])cc2)[n+](C)c2ccccc21.[I-]` (stereo partly shown) were 90 min, 139 min, 100% and 1000 to 5000 nM.
Regarding `CC(C)[C@@H]1CC[C@@H](C)CC1OC(=O)Cn1c(-c2cccc(F)c2)[n+](C)c2ccccc21.[I-]` (stereo partly shown), in data set [1], the half-life at 2 μM is 11 min. In addition, in data set [2], the “Buffer Stability” value came to 100%. Also, the 50% effective concentration (EC50) in the data set with Mut6 was 100 to 1000 nM.
For `CC(C)[C@@H]1CC[C@@H](C)CC1OC(=O)Cn1c(-c2cccc(C#N)c2)[n+](C)c2ccccc21` (stereo partly shown), the 50% effective concentration (EC50) in the data set with Mut6 is above 5000 nM.
As to `CSc1ccc(-c2n(CC(=O)OC3C[C@H](C)CC[C@H]3C(C)C)c3ccccc3[n+]2C)cc1.[I-]` (stereo partly shown), in data set [1], the half-life at 2 μM is 10 min. In addition, in data set [2], the “Buffer Stability” value was determined as 100%. Besides, the EC50 in the data set on Mut6 lay in the range of 100 to 1000 nM.
Take `CC(C)[C@@H]1CC[C@@H](C)CC1OC(=O)Cn1c(-c2ccc(N(C)C)cc2)[n+](C)c2ccccc21.[I-]` (stereo partly shown): in data set [1], the half-life at 2 μM is 8 min. In data set [2], the “Buffer Stability” value turned out to be 9%. The 50% effective concentration (EC50) in the data set with Mut6 was below 100 nM.
Taken in the same sequence, the figures for `Cc1ccccc1-c1n(CC(=O)OC2C[C@H](C)CC[C@H]2C(C)C)c2ccccc2[n+]1C.[I-]` (stereo partly shown) were 73 min, 100% and 100 to 1000 nM.
The corresponding values for `Cc1ccc(-c2n(CC(=O)OC3C[C@H](C)CC[C@H]3C(C)C)c3ccccc3[n+]2C)cc1.[I-]` (stereo partly shown) are 24 min, 95% and 100 to 1000 nM.
Regarding `CC(C)[C@@H]1CC[C@@H](C)CC1OC(=O)Cn1c(-c2cccc(C(F)(F)F)c2)[n+](C)c2ccccc21.[I-]` (stereo partly shown), the half-life at 2 μM in data set [1] was 240 min. For the same compound, the half-life in the data set “Murine S9 half-life” is above 240 min. Besides, in data set [2], the “Buffer Stability” value is listed as 100%. The 50% effective concentration (EC50) in the data set on Mut6 lay in the range of 100 to 1000 nM.
Turning to `CC(C)[C@@H]1CC[C@@H](C)CC1OC(=O)Cn1c(-c2cc(Cl)cc(Cl)c2)[n+](C)c2ccccc21.[I-]` (stereo partly shown), the half-life at 2 μM in data set [1] was 39 min. Besides, in data set [2], the “Buffer Stability” value amounted to 91%. Besides, in the data set with Mut6, the EC50 lay within 100 to 1000 nM.
The corresponding values for `COc1ccc(-c2n(CC(=O)OC3C[C@H](C)CC[C@H]3C(C)C)c3ccccc3[n+]2C)cc1.[I-]` (stereo partly shown) are 15 min, 100% and 100 to 1000 nM.
Take `CC(C)[C@@H]1CC[C@@H](C)CC1OC(=O)Cn1c(-c2ccc(N3CCCC3)cc2)[n+](C)c2ccccc21` (stereo partly shown): the EC50 with Mut6 is below 100 nM.
On the same count and under the same terms, the value for `CC(C)[C@@H]1CC[C@@H](C)CC1OC(=O)Cn1c(-c2ccc(N3CCCCC3)cc2)[n+](C)c2ccccc21` (stereo partly shown) was below 100 nM.
`C[C@@H]1C[C@@H]([C@H](O)CC2CC(=O)NC(=O)C2)C(=O)[C@@H](C)C1` [cycloheximide, reference compound]: the “activity against astrocytes” value in the data set on astrocytes is “sensitive”. Also, in the data set with Mut6, the “activity against Mut6 cells” value was “sensitive”.
